Laboratory results from patent publication US9522908B2, “Ezrin inhibitors and methods of making and using” (Georgetown University, priority 2010, dated 2016).

Tests used:
[1] = biological target: T1, ezrin T567 phosphorylation by PKC,τ (Mus musculus, UniProt P26040); experiment: In vitro kinase assay: recombinant ezrin T567 phosphorylation by PKC,τ; format: biochemical; conditions: phosphospecific antibody immunoblot densitometry
T1 construct: Recombinant full length ezrin was prepared to a concentration of 100 μg/ml; host or cells: E. coli M15pREP4 (ezrin)
T1 sequence (P26040 whole entry): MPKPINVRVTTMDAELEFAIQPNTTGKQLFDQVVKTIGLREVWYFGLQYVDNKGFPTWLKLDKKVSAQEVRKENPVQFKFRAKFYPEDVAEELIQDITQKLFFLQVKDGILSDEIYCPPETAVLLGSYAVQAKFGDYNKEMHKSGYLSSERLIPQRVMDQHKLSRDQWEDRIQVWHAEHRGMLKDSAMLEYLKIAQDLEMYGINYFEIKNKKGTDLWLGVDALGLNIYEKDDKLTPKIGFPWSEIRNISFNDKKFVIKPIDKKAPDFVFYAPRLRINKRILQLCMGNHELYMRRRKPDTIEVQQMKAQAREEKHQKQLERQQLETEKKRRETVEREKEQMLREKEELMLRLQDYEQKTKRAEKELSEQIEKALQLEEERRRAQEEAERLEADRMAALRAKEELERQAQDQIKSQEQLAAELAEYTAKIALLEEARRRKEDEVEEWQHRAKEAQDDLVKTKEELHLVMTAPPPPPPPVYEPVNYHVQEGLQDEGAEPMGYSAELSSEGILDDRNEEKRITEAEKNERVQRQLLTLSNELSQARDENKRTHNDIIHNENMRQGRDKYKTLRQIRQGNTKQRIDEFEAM
Protocol: FIG. 2 illustrates NSC305787 and NSC668394 inhibit ezrin T567 phosphorylation. (A) K7M2 metastatic OS cell line was treated with NSC305787 (10 μM) and NSC668394 (10 μM) for 6 hours. […] The effect of NSC305787 and NSC668394 on recombinant ezrin phosphorylation by recombinant PKC, was tested in an in vitro kinase assay. Phoshorylation of ezrin was detected by a phosphospecific antibody following PAGE and immunoblotting. Experiments were repeated three times and densitometric analysis of bands was used for calculation of % inhibition (graphs). Error bars represents s.d. from three independent experiments. Kinase activities of PKC,τ, PKC,α and PKC,γ were also evaluated with a nonspecific substrate in the presence of NSC305787 and NSC668394 by a radioactive in vitro kinase assay. Data analysis was done by using a sigmoidal dose-response equation where log EC50 for each curve with the ezrin substrate and the non-specific substrate were compared to each other (P=0.0118 for NSC305787 and P=0.0084 for NSC668394).
500 ng of recombinant ezrin protein in kinase assay mix (200 μM ATP) was incubated with the compounds at 1-100 μM concentrations for 15 minutes on ice, then 50 ng PKC,τ (Millipore, Billerica, Mass.) was added. Reaction was performed at 30° C. for 30 min and stopped by adding 2× sample buffer. […]

ezrin in K7M2 OS cells = biological target: T2, ezrin in K7M2 OS cells (Mus musculus, UniProt P26040); experiment: Endogenous ezrin T567 phosphorylation and actin binding in K7M2 cells (immunoprecipitation/immunoblot); format: cell-based; conditions: 10 μM
T2 construct: endogenous in cells; host or cells: K7M2 osteosarcoma cells
T2 sequence (P26040 whole entry): as above
Protocol: (§1) K7M2 cells that were treated with embodied compounds and resolved protein lysates were immunoblotted for co-precipitated phosphorylated ezrin (TOP), or actin (BOTTOM). 4.0×10^6 K7M2 cells were plated in 15 cm dishes. After 24 h, the plates are at least 70% confluent. Media was removed and 10 μM of compound in SF DMEM was added. After the ezrin protein was incubated for 5 h with the indicated compound, the plates were lysed with PLB containing Calyculin A. 2 μL of Ezrin Ab and 10 μM of the compound (prepared in PLB) were added to the lysate and allowed to incubate overnight (14 h), followed by tumbling with Agarose IgG beads. The mixture was run on 10% acrylamide gel and transferred overnight.
as §1, with “removed and either 7 μM or 10 μM” for “removed and 10 μM”
For analysis of actin binding to FL and mutant ezrin, K12 cell lysate was incubated with recombinant ezrin protein, then subjected to immunoprecipitation with ezrin antibody (Sigma, St. Louis, Mo.) and immunoblotted with actin antibody (Santa Cruz, Santa Cruz, Calif.). For analysis of inhibition of small molecules on ezrin phosphorylation and actin binding, K7M2 cell lysates were treated with compounds at 10 μM concentration for 6 hours, followed by immunoprecipitation with the ezrin antibody and immunoblotted with phospho-ezrin (Cell Signaling, Danvers, Mass.), actin and ezrin antibodies.

zebrafish embryos = experiment: Zebrafish embryo development assay; format: in vivo, Zebrafish (Danio rerio)
Protocol: Animals. Zebrafish (Danio rerio) were raised, maintained and crossed as described before (Westerfield, M. University of Oregon Press, Eugene. Or., 1993). Development of embryos was studied at 28° C. and staging was determined by morphological characteristics (Kimmel, C. B., et al., Dev. Dyn. 203, 253-310 (1995)).
A translation blocking anti-ezrin morpholino oligonucleotide (MO), described and validated by Link et al. (Link, V., et al., J. Cell Sci., 119, 2073-2083 (2006)), MO1, 5′-[…] (SEQ ID NO:1), was synthesized by Gene-Tools, LCC (Philomath, Oreg.). MOs were microinjected into one to four cell stage embryos.
Zebrafish embryos were arrayed, three per well, in 96-well plates. Compounds were added at 1-33 μM concentrations. Embryos were observed, and photographed, at 70% epiboly, 24-28 hours post fertilization (hpf) and 48 hpf.

[2] = system: GFP expressing K7M2 OS cells; experiment: Pulmonary metastasis assay (PuMA), lung organ culture; set-up: species or system mice; conditions: 10 μM
Protocol: FIG. 5 illustrates NSC305787 and NSC668394 inhibit OS metastatic growth in lung organ culture. GFP expressing K7M2 OS cells (2×10^5) were injected to tail vein of female BALB/c mice. Within 15 min of tumor cells injection, mice were euthanized and lungs were injected with a mixed agarose/medium solution and then were removed. Complete transverse sections (1-2 mm in thickness) were made from each lobe and 4-5 lung sections were placed on a single 1.5×0.7 cm sterile Gelfoam section. Lung sections were incubated at 37° C. in humidified conditions of 5% CO2. Fresh medium or small molecules (10 μM) were replaced every other day. (A) Quantitation of the fluorescence signal from NSC305787 (10 μM) and NSC668394 (10 μM) treated organ cultures over time. Metastatic burden was quantified by measuring the fluorescent area of metastatic cells in each lung section at each time point and was expressed as mean fluorescent area (mean fluorescent area of each lung section over 4 lung sections). Mean fluorescent area was normalized to 100 pixels for day 0 to allow quantitative evaluation of metastatic progression over time. Data are represented as mean .s.d. from three independent experiments. (B) Fluorescence pictures of a representative culture treated with 10 μM NSC305787 and 10 μM NSC668394 are given on the right panel. […]

OC(c1cc(C23CC4CC(CC(C4)C2)C3)nc2c(Cl)cc(Cl)cc12)C1CCCCN1 (stereo not shown) [NSC305787]
IC50 [1]: 5.5 µM | cellular ezrin protein levels (ezrin in K7M2 OS cells): without altering cellular ezrin protein levels | T567 phosphorylation of endogenous ezrin (ezrin in K7M2 OS cells; 6 hours): inhibited | actin binding of ezrin (ezrin in K7M2 OS cells; 6 hours): inhibited | embryos with epiboly defects (zebrafish embryos; 10 μM): 15% | embryos with epiboly defects (zebrafish embryos; 20 μM): 100% | lung metastasis of K7M2 cells in lung organ culture (GFP fluorescence) [2]: significantly inhibited
